In series [1] the test system is stromal cells prepared from the femoral bone marrow of a normal rat. Description: Osteogenesis-promoting action: alkaline phosphatase activity in rat bone marrow stromal cells. The series is classed as cell-based. The conditions noted are these: 10 to 14 days cultivation, mean ±SE, control 113.7 ± 8.1. The procedure:
Using stromal cells prepared from the femoral bone marrow of a normal rat, alkaline phosphatase activity was determined as an index of osteogenesis. Specifically, stromal cells, prepared from the femoral bone marrow of a 7-week-old male Sprague-Dawley rat by the method of Maniatopoulos et al. [Cell Tissue Research, Vol. 254, p. 317 (1988)], were cultured in an α-MEM (minimum essential medium) solution containing both dexamethasone (10^−7 M) and β-glycerophosphoric acid (10^−2 M) to obtain mineralized bone-like tissue. One week later, the test compound (10^−6 M or 10^−5 M) was added to the confluent cells, followed by 10 to 14 more days of cultivation in the above culture broth. After washing with phosphate buffer, the cells were homogenized with 0.2% Nonidet P-40 and centrifuged at 3,000 rpm for 10 minutes. The resulting supernatant was assayed for alkaline phosphatase activity by the method of Lowry et al. [Journal of Biological Chemistry, Vol. 207, p. 19 (1954)]. The values obtained are given in mean ±SE in Table 1. The data were statistically analyzed by Student's t-test.

From US6632807B1, “(2R,4S)-(−)-[N-(4-diethoxyphosphorylmethyl)phenyl]-1,2,4,5- tetrahydro-4-methyl-7,8-methylenedioxy-5-oxo-3-benzothiepin-2-carboxamide” (Takeda Chemical Industries, Ltd., priority 1994, dated 2003) come the findings set out here.

By melting point is commonly meant the temperature of the solid-liquid transition.

`COP(=O)(Cc1ccc(NC(=O)[C@H]2Cc3cc4c(cc3C(=O)[C@H](C)S2)OCO4)cc1)OC` gave a melting point of 198 to 199 °C.

Regarding `CCOP(=O)(Cc1ccc(NC(=O)[C@H]2Cc3cc4c(cc3C(=O)[C@H](C)S2)OCO4)cc1)OCC` [Example 1, (2R,4S)-(−)-N-[4-(Diethoxyphosphorylmethyl)phenyl]-1,2,4,5-tetrahydro-4-methyl-7,8-methylenedioxy-5-oxo-3-benzothiepin-2-carboxamide], the results for the “Alkaline Phosphatase Activity” value in series [1] (test compound 10^−5 M) and in series [1] (test compound 10^−6 M) were 1635.5 ± 169.7 nmol p-nitrophenol/min/well and 682.5 ± 123.2 nmol p-nitrophenol/min/well, respectively.

`CCOP(=O)(Cc1ccc(NC(=O)[C@@H]2Cc3cc4c(cc3C(=O)[C@@H](C)S2)OCO4)cc1)OCC` returned a melting point of 183 to 184 °C.
